Values of other authors in patent publication US11478522B2, “Synergistic herbal compositions with prebiotic properties for treatment of acne” (KAMEDIS LTD., priority 2016, dated 2022).

Legend:
[1] = target: NLRP3 inflammasome (Homo sapiens, UniProt Q96P20)
[2] = target: enzyme 11β-HSD1 (Homo sapiens, UniProt P28845)
Sequence of enzyme 11β-HSD1 (P28845 whole entry, species assumed): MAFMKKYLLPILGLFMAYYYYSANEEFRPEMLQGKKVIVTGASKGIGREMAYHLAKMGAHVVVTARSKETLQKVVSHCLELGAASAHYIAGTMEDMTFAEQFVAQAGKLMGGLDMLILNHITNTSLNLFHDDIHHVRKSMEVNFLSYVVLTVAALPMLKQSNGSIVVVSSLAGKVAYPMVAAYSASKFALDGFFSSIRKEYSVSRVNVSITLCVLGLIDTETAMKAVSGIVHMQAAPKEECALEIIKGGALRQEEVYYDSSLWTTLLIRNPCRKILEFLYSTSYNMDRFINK

Sequence of NLRP3 inflammasome (Q96P20 whole entry): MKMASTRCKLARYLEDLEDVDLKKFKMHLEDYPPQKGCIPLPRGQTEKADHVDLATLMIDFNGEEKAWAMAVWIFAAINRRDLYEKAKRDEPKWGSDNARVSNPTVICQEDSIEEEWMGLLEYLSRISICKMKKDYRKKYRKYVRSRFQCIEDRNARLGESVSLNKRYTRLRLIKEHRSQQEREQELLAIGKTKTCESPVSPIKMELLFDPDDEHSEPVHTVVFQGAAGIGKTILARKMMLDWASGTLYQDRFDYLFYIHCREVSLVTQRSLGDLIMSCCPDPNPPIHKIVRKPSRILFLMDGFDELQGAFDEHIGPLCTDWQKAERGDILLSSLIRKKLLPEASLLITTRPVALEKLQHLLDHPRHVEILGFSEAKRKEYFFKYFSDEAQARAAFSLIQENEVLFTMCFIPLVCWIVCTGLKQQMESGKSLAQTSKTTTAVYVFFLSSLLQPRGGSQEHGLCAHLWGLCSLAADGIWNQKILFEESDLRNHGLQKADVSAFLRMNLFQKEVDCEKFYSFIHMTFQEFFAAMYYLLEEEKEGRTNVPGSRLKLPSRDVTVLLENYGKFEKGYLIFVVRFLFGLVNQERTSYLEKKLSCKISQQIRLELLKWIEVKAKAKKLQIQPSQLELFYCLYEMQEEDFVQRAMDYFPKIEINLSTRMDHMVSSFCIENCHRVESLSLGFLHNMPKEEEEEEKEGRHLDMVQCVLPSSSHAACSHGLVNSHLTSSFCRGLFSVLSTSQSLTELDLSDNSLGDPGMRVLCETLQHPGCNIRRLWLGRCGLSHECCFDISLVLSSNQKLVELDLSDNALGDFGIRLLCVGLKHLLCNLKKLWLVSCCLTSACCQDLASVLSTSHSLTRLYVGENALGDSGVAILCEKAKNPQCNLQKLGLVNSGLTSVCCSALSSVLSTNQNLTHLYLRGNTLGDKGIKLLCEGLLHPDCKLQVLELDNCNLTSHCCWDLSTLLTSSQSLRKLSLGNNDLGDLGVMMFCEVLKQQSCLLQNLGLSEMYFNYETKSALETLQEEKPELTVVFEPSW

NLRP3 inflammasome activation [1]: attenuate NLRP3 inflammasome activation | inhibition of the enzyme 11β-HSD1 [2]: effective and selective as inhibitors
Structure (SMILES): Cc1cc(O)c2c(c1)C(=O)c1cc(O)cc(O)c1C2=O [emodin]
